Assays:
CDK2-Nluc = target: T1, CDK2-Nluc (Homo sapiens, UniProt P24941); test: Direct-luciferase-detection thermal shift assay, compound selectivity, CDK2-Nluc (Example 6); assay type: binding; conditions: HeLa cells then digitonin, 10 uL of 1 mM stock per well
T1 construct: NanoLuc luciferase (Nluc); expressed in transfected cells; host or cells: HeLa
Experimental: (§1) HeLa cells were transfected separately with CDK2-Nluc or Nluc-ABL1 DNA at a 1:100 DNA ratio and incubated overnight. […] The cells were seeded into 96-well tall-chimney PCR plate (Fisherbrand) at a density of 2×10^4 cells/well in a 90 uL/well volume and treated with 10 uL of 10% DMSO (Sigma) or 10 uL of a 1 mM stock solution of test compound in 10% DMSO. […] The plates were then incubated for ½ hour in a humidified, 37° C./5% CO2 incubator prior to addition of 10 uL/well of a 0.5 mg/ml solution of digitonin (Sigma) and 10% DMSO (Sigma). The plates were placed into a thermal cycler (MW Research) where the samples were heated individually at different temperatures spanning a gradient of 42-66° C. across the plate for 3 minutes followed by cooling at 22° C. for 3 minutes. Furimazine Live Cell Substrate (Promega) was added to a final concentration of 1× in 20 uL/well volume. 100 uL/well was then transferred to a tissue culture plate (Corning), and luminescence was measured on a BMG Clariostar luminometer equipped with a 450 nm BP filter. Data was normalized by relating RLU signals to the RLU of the lowest temperature for the respective sample. Data was then fitted to obtain apparent melting temperature where the protein was precipitating (Tagg values) using the Boltzmann Sigmoidal equation with Graphpad Prism software.

Nluc-ABL1 = target: T2, Nluc-ABL1 (Homo sapiens, UniProt P00519); test: Direct-luciferase-detection thermal shift assay, compound selectivity, Nluc-ABL1 (Example 6); assay type: binding; conditions: Nluc-ABL1, HeLa cells then digitonin, 10 uL of 1 mM stock per well
T2 construct: NanoLuc luciferase (Nluc); expressed in transfected cells; host or cells: HeLa
T2 sequence (P00519 whole entry): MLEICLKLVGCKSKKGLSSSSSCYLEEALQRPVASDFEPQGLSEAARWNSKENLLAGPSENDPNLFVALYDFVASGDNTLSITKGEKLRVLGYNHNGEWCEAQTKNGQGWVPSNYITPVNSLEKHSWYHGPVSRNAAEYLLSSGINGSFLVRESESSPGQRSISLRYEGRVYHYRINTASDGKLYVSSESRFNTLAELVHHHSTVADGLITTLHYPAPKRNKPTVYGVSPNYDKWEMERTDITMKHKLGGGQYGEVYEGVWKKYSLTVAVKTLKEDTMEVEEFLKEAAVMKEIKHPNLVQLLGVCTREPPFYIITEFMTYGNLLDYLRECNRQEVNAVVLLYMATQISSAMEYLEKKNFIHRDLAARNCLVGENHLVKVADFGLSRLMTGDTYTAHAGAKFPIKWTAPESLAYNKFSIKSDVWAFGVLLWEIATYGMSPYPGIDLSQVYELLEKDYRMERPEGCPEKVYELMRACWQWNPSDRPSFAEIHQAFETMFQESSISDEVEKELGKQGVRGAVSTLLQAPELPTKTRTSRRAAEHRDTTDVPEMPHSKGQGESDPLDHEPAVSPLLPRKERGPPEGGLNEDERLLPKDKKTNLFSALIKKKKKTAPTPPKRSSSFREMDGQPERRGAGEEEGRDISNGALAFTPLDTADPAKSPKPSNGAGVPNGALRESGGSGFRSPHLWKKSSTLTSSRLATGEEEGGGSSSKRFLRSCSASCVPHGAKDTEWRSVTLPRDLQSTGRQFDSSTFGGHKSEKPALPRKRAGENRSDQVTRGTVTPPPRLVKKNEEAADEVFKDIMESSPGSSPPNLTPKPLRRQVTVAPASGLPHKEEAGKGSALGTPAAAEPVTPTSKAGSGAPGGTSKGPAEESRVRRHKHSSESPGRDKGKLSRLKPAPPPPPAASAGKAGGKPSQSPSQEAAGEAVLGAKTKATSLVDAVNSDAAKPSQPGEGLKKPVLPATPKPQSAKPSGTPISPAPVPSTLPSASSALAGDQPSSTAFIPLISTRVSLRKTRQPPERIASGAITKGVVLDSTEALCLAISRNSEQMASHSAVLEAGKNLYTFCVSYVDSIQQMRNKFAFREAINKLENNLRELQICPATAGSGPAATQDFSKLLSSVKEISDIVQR
Experimental: as §1

[1] = Optical property of dyes in DMSO (Table 1); assay type: physicochemical; conditions: for Optical Property (in DMSO) Excitation: unit assumed
HDAC1-Nluc = target: T3, HDAC1-Nluc (Homo sapiens, UniProt Q13547); test: Direct-luciferase-detection thermal shift assay, HDAC1-Nluc (Example 7); assay type: binding; conditions: HeLa cells then digitonin, 10 uL of 1 mM stock per well
T3 construct: NanoLuc luciferase (Nluc); expressed in transfected cells; host or cells: HeLa
T3 sequence (Q13547 whole entry): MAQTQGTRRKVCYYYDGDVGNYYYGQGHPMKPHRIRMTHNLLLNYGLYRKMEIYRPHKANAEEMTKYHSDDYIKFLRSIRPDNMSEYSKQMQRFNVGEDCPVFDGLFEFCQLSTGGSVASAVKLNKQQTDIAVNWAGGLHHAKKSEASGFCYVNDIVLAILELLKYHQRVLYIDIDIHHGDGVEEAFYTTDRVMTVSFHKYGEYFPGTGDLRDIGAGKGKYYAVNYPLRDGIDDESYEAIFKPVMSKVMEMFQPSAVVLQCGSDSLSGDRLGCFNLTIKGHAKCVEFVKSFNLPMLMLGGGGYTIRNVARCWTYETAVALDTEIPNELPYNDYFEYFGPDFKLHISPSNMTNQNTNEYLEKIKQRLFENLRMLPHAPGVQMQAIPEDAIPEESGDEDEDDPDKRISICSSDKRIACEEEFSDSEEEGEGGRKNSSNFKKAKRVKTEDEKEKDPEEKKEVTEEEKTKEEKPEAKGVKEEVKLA
Experimental: The cells were seeded into 96-well tall-chimney PCR plate (Fisherbrand) at a density of 2×10^4 cells/well in a 90 uL/well volume and treated with 10 uL of 10% DMSO (Sigma) or 10 uL of a 1 mM stock solution of test compound in 10% DMSO. […] The plates were placed into a thermal cycler (MW Research) where the samples were heated individually at different temperatures spanning a gradient of 42-66° C. across the plate for 3 minutes followed by cooling at 22° C. for 3 minutes. 100 uL/well was then transferred to a tissue culture plate (Corning), and luminescence was measured on a BMG Clariostar luminometer equipped with a 450 nm BP filter. Data was normalized by relating RLU signals to the RLU of the lowest temperature for the respective sample.

Row | Compound | shift in apparent Tagg compared to DMSO controls (CDK2-Nluc) | shift in apparent Tagg compared to DMSO controls (Nluc-ABL1) | Optical Property (in DMSO) Emission [1] | Optical Property (in DMSO) Excitation [1] [nm] | shift in melting temperature (apparent Tagg) compared to the controls (HDAC1-Nluc)
1 | Cn1c(NC[C@@H](N)Cc2ccccc2)nc(-c2ccncc2)c(-c2ccc3ccccc3c2)c1=O [AMG548] | did not result in a significant shift in apparent Tagg | did not | – | – | –
2 | CCCCCCN(CCCCCC)c1ccc(/C=C/c2cc[n+](CCCC(=O)NCCCS(=O)(=O)[O-])cc2)cc1 [CS0043] | – | – | 468 nm | 620 | –
3 | CCCCCCN(CCCCCC)c1ccc(/C=C/C=C/c2cc[n+](CCCS(=O)(=O)[O-])cc2)cc1 [CS0024] | – | – | 516 nm | 702 | –
4 | CCCCCCN(CCCCCC)c1cccc2c(/C=C/c3cc[n+](CCCS(=O)(=O)[O-])cc3)cccc12 [CS0071] | – | – | not fluorescent | – | –
5 | CCCCCCN(CCCCCC)c1ccc(/C=C/C2=[N+](C)c3ccccc3C2(C)C)cc1.[I-] [CS0067] | – | – | 550 nm | 604 | –
6 | CCCCCCN(CCCCCC)c1ccc(/C=C/C=C/c2cc[n+](CCC[N+](C)(C)C)cc2)cc1 [CS0155] | – | – | 516 nm | 702 | –
7 | CCCCCCN(CCCCCC)c1ccc(/C=C/c2ccc3c(ccc[n+]3CCCS(=O)(=O)[O-])c2)cc1 [CS0072] | – | – | not fluorescent | – | –
8 | CCCCCCN(CCCCCC)c1ccc(/C=C/c2ccc3ccccc3[n+]2C)cc1.[I-] [CS0085] | – | – | 532 nm | 640 | –
9 | CCCCCCN(CCCCCC)c1ccc(/C=C/c2cc[n+](CCCC(=O)O)cc2)cc1.[Br-] [CS0036, (E)-1-(3-Carboxypropyl)-4-(4-(dihexylamino)styryl)pyridin-1-ium chloride] | – | – | 480 nm | 624 | –
10 | CCCCCCN(CCCCCC)c1ccc(/C=C/c2cc[n+](C34CC5CC(CC(C5)C3)C4)cc2)cc1.[Br-] [CS0096] | – | – | 480 nm | 618 | –
11 | CCCCCCN(CCCCCC)c1ccc(/C=C/c2cc[n+](CCCC(=O)NCCOCCOCCOCCC(=O)OC(C)(C)C)cc2)cc1.[Br-] [CS0100, (E)-4-(4-(Dihexylamino)styryl)-1-(2,2-dimethyl-4,17-dioxo-3,7,10,13-tetraoxa-16-azaicosan-20-yl)pyridin-1-ium chloride] | – | – | 480 nm | 622 | –
12 | CCCCCCN(CCCCCC)c1ccc(/C=C/c2cc[n+](CC)cc2)cc1.[OH-] [CS0112] | – | – | 480 nm | 620 | –
13 | CCCCCCN(CCCCCC)c1ccc(/C=C/c2cc[n+](CCCS(=O)(=O)[O-])cc2)c2ccccc12 [CS0038] | – | – | 462 nm | 654 | –
14 | CCCCCCN(CCCCCC)c1ccc(/C=C/c2cc[n+](CCCC(=O)NCCOCCOCCOCCC(=O)NCCCS(=O)(=O)[O-])cc2)cc1 [CS0048, (E)-21-(4-(4-(Dihexylamino)styryl)pyridin-1-ium-1-yl)-5,18-dioxo-8,11,14-trioxa-4,17-diazahenicos-ane-1-sulfonate] | – | – | 478 nm | 620 | –
15 | CCCCCCN(CCCCCC)c1ccc(/C=C/C=C/c2cc[n+](CCCC(=O)NCCOCCOCCOCCC(=O)OC(C)(C)C)cc2)cc1 [CS0147] | – | – | 516 nm | 702 | –
16 | C[n+]1c(/C=C/c2ccc3ccccc3c2)ccc2ccccc21.[I-] [CS0087] | – | – | 400 nm | 550 | –
17 | CCCCCCN(CCCCCC)c1ccc(/C=C/c2cc[n+](CCCC(=O)NCCOCCOCCOCCC(=O)O)cc2)cc1.[Br-] [CS0045, (E)-1-(1-Carboxy-13-oxo-3,6,9-trioxa-12-azahexadecan-16-yl)-4-(4-(dihexylamino)styryl)pyridin-1-ium chloride] | – | – | 480 nm | 622 | –
18 | Cc1cn(-c2cc(NC(=O)c3ccc(C)c(Nc4nccc(-c5cccnc5)n4)c3)cc(C(F)(F)F)c2)cn1 [Nilotinib] | did not result in a significant shift in apparent Tagg | – | – | – | –
19 | O=C(CCCCCCNC(=O)c1cnc(N(c2ccccc2)c2ccccc2)nc1)NO [ACY1215] | – | – | – | – | significant shift in melting temperature (apparent Tagg)
20 | CCCCCCN(CCCCCC)c1ccc(/C=C/c2cc[n+](CCC(F)(F)C(F)(F)C(F)(F)C(F)(F)C(F)(F)C(F)(F)F)cc2)cc1.[I-] [CS0121, (E)-4-(4-(dihexylamino)styryl)-1-(3,3,4,4,5,5,6,6,7,7,8,8,8-tridecafluorooctyl)pyridin-1-iumiodide] | – | – | 480 nm | 620 | –
21 | Nc1ccccc1NC(=O)c1ccc(CNc2nccc(-c3cccnc3)n2)cc1 [Mocetinostat] | – | – | – | – | significant shift in melting temperature (apparent Tagg)
22 | CCCCCCN(CCCCCC)c1ccc(/C=C/c2cc[n+](CCCS(=O)(=O)[O-])c3ccccc23)cc1 [CS0028] | – | – | 560 nm | 680 | –
23 | CCCCCCN(CCCCCC)c1ccc(/C=C/c2cc[n+](CCCC(=O)OCC)cc2)cc1.[Br-] [CS0101, (E)-4-(4-(Dihexylamino)styryl)-1-(4-ethoxy-4-oxobutyl)pyridin-1-ium bromide] | – | – | 480 nm | 624 | –
24 | CCCCCCN(CCCCCC)c1ccc(/C=C/c2cc[n+](CCCC(=O)N(CCCS(=O)(=O)[O-])CCCS(=O)(=O)O)cc2)cc1 [CS0073, (E)-3-(4-(4-(4-(Dihexylamino)styryl)pyridin-1-ium-1-yl)-N-(3-sulfopropyl)butanamido)propane-1-sulfonate] | – | – | 480 nm | 620 | –
25 | C[S+]([O-])c1ccc(-c2nc(-c3ccncc3)c(-c3ccc(F)cc3)[nH]2)cc1 (stereo not shown) [SB203580] | did not result in a significant shift in apparent Tagg | did not | – | – | –
26 | CCCCCCN(CCCCCC)c1ccc(/C=C/c2ccncc2)cc1 [CS0117, (E)-N,N-Dihexyl-4-(2-(pyridin-4-yl)vinyl)aniline] | – | – | 468 nm | 620 | –
27 | CCCCCCN(CCCCCC)c1ccc(/C=C/c2cccc[n+]2CCCS(=O)(=O)[O-])cc1 [CS0020] | – | – | 468 nm | 602 | –

Source: patent publication US11899021B2, “Luciferase-based thermal shift assays” (Promega Corporation, priority 2015, dated 2024)
